What was measured:
Format in all cases: functional
Onchocerca lienalis [1] = assay: MMV: Percent motility assay at a compound concentration of 1.25e-5 M. Activity score legend: 3: Active, 2: Moderately active; 1: Inactive, 0: Toxic; settings: at 12.5 µM
Onchocerca lienalis [2] = assay: MMV: Percent motility assay at a compound concentration of 7.8e-7 M. Activity score legend: 3: Active, 2: Moderately active; 1: Inactive, 0: Toxic; settings: at 0.78 µM
Onchocerca lienalis [3] = assay: MMV: Percent motility assay at a compound concentration of 1.9e-7 M. Activity score legend: 3: Active, 2: Moderately active; 1: Inactive, 0: Toxic; settings: at 0.19 µM
Onchocerca lienalis [4] = assay: MMV: Percent motility assay at a compound concentration of 3.1e-6 M. Activity score legend: 3: Active, 2: Moderately active; 1: Inactive, 0: Toxic; settings: at 3.1 µM

CN(C)CCCNc1c2ccccc2nc2ccccc12
Motility (Onchocerca lienalis [1]): 100%
Motility (Onchocerca lienalis [2]): 100%
Motility (Onchocerca lienalis [3]): 100%
Motility (Onchocerca lienalis [4]): 100%

COc1ccc(-c2c(C)nn3c(N)c(C#N)cnc23)cc1OC
Motility (Onchocerca lienalis [1]): 100%
Motility (Onchocerca lienalis [2]): 100%
Motility (Onchocerca lienalis [3]): 100%
Motility (Onchocerca lienalis [4]): 100%

CSC1=NC(=Nc2c(C)cccc2C)C2(CCC(C(C)(C)C)CC2)N1c1ccc(Cl)cc1 (centres undefined)
Motility (Onchocerca lienalis [1]): 100%
Motility (Onchocerca lienalis [2]): 100%
Motility (Onchocerca lienalis [3]): 100%
Motility (Onchocerca lienalis [4]): 100%

COc1ccc(-c2cc3c(SCC(=O)Nc4cc(C(F)(F)F)ccc4Cl)nccn3n2)cc1
Motility (Onchocerca lienalis [1]): 100%
Motility (Onchocerca lienalis [2]): 100%
Motility (Onchocerca lienalis [3]): 100%
Motility (Onchocerca lienalis [4]): 100%

Cc1cc(Nc2ccc3ccccc3c2)n2ncnc2n1
Motility (Onchocerca lienalis [1]): 100%
Motility (Onchocerca lienalis [2]): 100%
Motility (Onchocerca lienalis [3]): 100%
Motility (Onchocerca lienalis [4]): 100%

COc1ccc(-c2nc(NC(=O)CS(=O)(=O)c3ccc(F)cc3)sc2C)cc1
Motility (Onchocerca lienalis [1]): 100%
Motility (Onchocerca lienalis [2]): 100%
Motility (Onchocerca lienalis [3]): 100%
Motility (Onchocerca lienalis [4]): 100%

O=C(O)C1Cc2c([nH]c3ccccc23)C(c2ccc(Cl)cc2Cl)N1 (centres undefined)
Motility (Onchocerca lienalis [1]): 100%
Motility (Onchocerca lienalis [2]): 100%
Motility (Onchocerca lienalis [3]): 100%
Motility (Onchocerca lienalis [4]): 100%

COc1cccc(NC(=O)[C@H](C(C)C)n2c(=O)[nH]c3ccccc3c2=O)c1
Motility (Onchocerca lienalis [1]): 100%
Motility (Onchocerca lienalis [2]): 100%
Motility (Onchocerca lienalis [3]): 100%
Motility (Onchocerca lienalis [4]): 100%

CC(C)(C)c1ccc(O)c(CNC2CCCCC2)c1
Motility (Onchocerca lienalis [1]): 100%
Motility (Onchocerca lienalis [2]): 100%
Motility (Onchocerca lienalis [3]): 100%
Motility (Onchocerca lienalis [4]): 100%

O=[N+]([O-])c1ccc(C=NNc2nc3ccccc3[nH]2)cc1
Motility (Onchocerca lienalis [1]): 100%
Motility (Onchocerca lienalis [2]): 100%
Motility (Onchocerca lienalis [3]): 100%
Motility (Onchocerca lienalis [4]): 100%

COc1ccc(C2=C(c3ccc(OC)cc3)C3(c4ccccc4)C(=O)C2(c2ccccc2)C2C(=O)N(c4ccc(C)cc4)C(=O)C23)cc1 (centres undefined)
Motility (Onchocerca lienalis [1]): 100%
Motility (Onchocerca lienalis [2]): 100%
Motility (Onchocerca lienalis [3]): 100%
Motility (Onchocerca lienalis [4]): 100%

CCOC(=O)c1c(NC(=O)c2ccccc2)sc2c(O)c(CN(CC)CC)ccc12
Motility (Onchocerca lienalis [1]): 100%
Motility (Onchocerca lienalis [2]): 100%
Motility (Onchocerca lienalis [3]): 100%
Motility (Onchocerca lienalis [4]): 100%

COc1ccc(C=C2SC(=N)N(c3ccccc3OC)C2=O)cc1
Motility (Onchocerca lienalis [1]): 100%
Motility (Onchocerca lienalis [2]): 100%
Motility (Onchocerca lienalis [3]): 100%
Motility (Onchocerca lienalis [4]): 100%

COc1ccc(NC(=O)C2c3ccccc3C(=O)N(CC(C)C)C2c2cccs2)cc1Cl (centres undefined)
Motility (Onchocerca lienalis [1]): 100%
Motility (Onchocerca lienalis [2]): 100%
Motility (Onchocerca lienalis [3]): 100%
Motility (Onchocerca lienalis [4]): 100%

CCOC(=O)c1c(C)n(-c2ccc(Cl)cc2)c2ccc(OC(=O)C=Cc3ccccc3)cc12
Motility (Onchocerca lienalis [1]): 100%
Motility (Onchocerca lienalis [2]): 100%
Motility (Onchocerca lienalis [3]): 100%
Motility (Onchocerca lienalis [4]): 100%

COc1ccccc1CNC(=O)CCn1c(=O)[nH]c2ccccc2c1=O
Motility (Onchocerca lienalis [1]): 100%
Motility (Onchocerca lienalis [2]): 100%
Motility (Onchocerca lienalis [3]): 100%
Motility (Onchocerca lienalis [4]): 100%

Cl.Oc1ccccc1CNCC12CC3CC(CC(C3)C1)C2
Motility (Onchocerca lienalis [1]): 100%
Motility (Onchocerca lienalis [2]): 100%
Motility (Onchocerca lienalis [3]): 100%
Motility (Onchocerca lienalis [4]): 100%

CNCCCNc1ccnc2cc(Cl)ccc12
Motility (Onchocerca lienalis [1]): 100%
Motility (Onchocerca lienalis [2]): 100%
Motility (Onchocerca lienalis [3]): 100%
Motility (Onchocerca lienalis [4]): 100%

CC1CCN(Cc2ccc(NC(=O)c3cc4ccc5cccnc5c4[nH]3)cc2)CC1
Motility (Onchocerca lienalis [1]): 100%
Motility (Onchocerca lienalis [2]): 100%
Motility (Onchocerca lienalis [3]): 100%
Motility (Onchocerca lienalis [4]): 100%

CSc1ccccc1C(=O)Nc1nc(-c2ccccn2)cs1
Motility (Onchocerca lienalis [1]): 33.33%
Motility (Onchocerca lienalis [2]): 100%
Motility (Onchocerca lienalis [3]): 100%
Motility (Onchocerca lienalis [4]): 100%

COc1ccc(C(C)=O)cc1N1C(=O)C2C(C1=O)C1(c3ccccc3)C(=O)C2(c2ccccc2)C(c2ccc(C)cc2)=C1c1ccc(C)cc1 (centres undefined)
Motility (Onchocerca lienalis [1]): 100%
Motility (Onchocerca lienalis [2]): 100%
Motility (Onchocerca lienalis [3]): 100%
Motility (Onchocerca lienalis [4]): 100%

Source: ChEMBL document CHEMBL3137381, “MMV Box Onchocerca lienalis screening set”
